Patent publication US12415797B2, “Heterocyclic compound as CDK-HDAC double-channel inhibitor” (Hangzhou Innogate Pharma Co., Ltd., priority 2018, dated 2025)
Like-named read-outs stand apart in the source and are kept apart here.

How the values were obtained:
Assay type in all cases: biochemical
CDK4/CycD3 = CDK4/CycD3 (Homo sapiens (Human), UniProt P11802); assay: CDK4/CycD3 kinase Mobility Shift Assay; settings: CDK4/CycD3 10 nM, ATP Km 221 μM, 180 min, 28° C.
Protocol: (§1) In vitro enzymatic activity of the CDK isoforms CDK2/CycA2, CDK4/CycD3 and CDK6/cycD3 were measured using Mobility Shift Assay that monitors phosphorylation ratio of FAM labelled peptide (Peptide 18 for CDK2/CycA2, Peptide 8 for CDK4/CycD3). CDK2/CycA2 and CDK6/CycD3 were assayed under buffer conditions in the presence of 50 mM HEPES (pH 7.5), 10 mM MgCl2, 0.0015% Brij-35 and 2 mM dithiothreitol; CDK4/CycD3 with buffer condition of 20 mM HEPES (pH 7.5), 10 mM MgCl2, 0.01% Triton X-100 and 2 mM dithiothreitol. Prepare compounds to 50× of the final desired highest inhibitor concentration by 100% DMSO and serial dilution in 3-fold for total of 10 concentrations. For each isoform, dosage of enzyme and substrate are CDK2/CycA2 12 nM, ATP Km 39 μM; CDK4/CycD3 10 nM, ATP Km […]; CDK6/cycD3 15 nM, ATP Km 800 μM. After assay for 60 min, 180 min, 60 min respectively at 28° C., reactions were terminated with stop solution (50 mM EDTA, 0.015% Brij-35, 0.2% Coating Reagent #3 and 100 mM HEPES (pH 7.5)). Collect conversion on Caliper EZ Reader. IC50 values were calculated by fitting the dose-response curves with Xlfit excel add-in version 4.3.1.

CDK6/cycD3 = CDK6/cycD3 (Homo sapiens (Human), UniProt Q00534); assay: CDK6/cycD3 kinase Mobility Shift Assay; settings: CDK6/cycD3 15 nM, ATP Km 800 μM, 60 min, 28° C.
Protocol: as §1

CDK2/CycA2 = CDK2/CycA2 (Homo sapiens (Human), UniProt P24941); assay: CDK2/CycA2 kinase Mobility Shift Assay; settings: CDK2/CycA2 12 nM, ATP Km 39 μM, 60 min, 28° C.
Protocol: as §1

HDAC-1 = HDAC-1 (Homo sapiens (Human), UniProt Q13547); assay: HDAC-1 fluorogenic deacetylase assay (Ac-peptide-AMC); settings: recombinant, full-length protein, Ac-peptide-AMC substrate; read-out: HDAC1 (IC50)
Protocol: (§2) The inhibitory effect of compounds on HDAC-1 and HDAC-6 function was determined in vitro using an optimized homogenous assay performed in 384-well plate format. In this assay, the recombinant, full-length HDAC-1, HDAC-2 or HDAC-6 protein (BPS Biosciences) was incubated with Ac-peptide-AMC with concentrations in the Km plot. Reactions were performed in Tris-based assay buffer and were followed for fluorogenic release of 7-amino-4-methylcoumarin from substrate upon deacetylase and trypsin enzymatic activity. Fluorescence measurements were obtained using a multilabel plate reader (Synergy MX with excitation at 355 nm and emission at 460 nm). Data were analyzed on a plate-by-plate basis for the linear range of fluorescence over time. Fit the data in GraphPad Prism V5.0 software to obtain IC50 values using equation (Y=Bottom+(Top-Bottom)/(1+10^((Log IC50−X)*Hill Slope), Y is % inhibition and X is compound concentration).

HDAC-6 = HDAC-6 (Homo sapiens (Human), UniProt Q9UBN7); assay: HDAC-6 fluorogenic deacetylase assay (Ac-peptide-AMC); settings: read-out: HDAC6 (IC5)
Protocol: as §2

[1] = recombinant, full-length protein, Ac-peptide-AMC substrate

HDAC-1, sequence (Q13547 whole entry): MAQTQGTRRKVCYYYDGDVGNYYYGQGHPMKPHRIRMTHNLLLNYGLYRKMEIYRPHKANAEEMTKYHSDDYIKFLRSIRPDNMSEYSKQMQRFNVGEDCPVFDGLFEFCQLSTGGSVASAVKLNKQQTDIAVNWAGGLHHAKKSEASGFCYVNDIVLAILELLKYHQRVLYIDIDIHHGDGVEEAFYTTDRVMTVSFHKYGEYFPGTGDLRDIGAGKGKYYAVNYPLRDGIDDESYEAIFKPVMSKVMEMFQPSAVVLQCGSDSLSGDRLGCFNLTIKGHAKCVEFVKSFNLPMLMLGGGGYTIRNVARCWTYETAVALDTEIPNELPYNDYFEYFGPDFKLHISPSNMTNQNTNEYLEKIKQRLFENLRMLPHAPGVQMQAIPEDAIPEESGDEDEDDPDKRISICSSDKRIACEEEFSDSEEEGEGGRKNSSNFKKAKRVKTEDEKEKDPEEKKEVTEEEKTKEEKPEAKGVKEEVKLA
CDK4/CycD3, sequence (P11802 whole entry, species assumed, canonical isoform): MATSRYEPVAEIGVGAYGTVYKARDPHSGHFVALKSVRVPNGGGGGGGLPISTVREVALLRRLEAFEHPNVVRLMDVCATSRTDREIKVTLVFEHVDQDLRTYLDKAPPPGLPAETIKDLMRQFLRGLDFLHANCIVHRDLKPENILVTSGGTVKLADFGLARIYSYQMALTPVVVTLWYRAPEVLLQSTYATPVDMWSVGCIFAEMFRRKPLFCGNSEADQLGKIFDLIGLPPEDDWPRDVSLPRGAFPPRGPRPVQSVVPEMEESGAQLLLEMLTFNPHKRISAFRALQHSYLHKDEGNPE
CDK4/CycD3, sequence (P30281 whole entry partner, species assumed, canonical isoform): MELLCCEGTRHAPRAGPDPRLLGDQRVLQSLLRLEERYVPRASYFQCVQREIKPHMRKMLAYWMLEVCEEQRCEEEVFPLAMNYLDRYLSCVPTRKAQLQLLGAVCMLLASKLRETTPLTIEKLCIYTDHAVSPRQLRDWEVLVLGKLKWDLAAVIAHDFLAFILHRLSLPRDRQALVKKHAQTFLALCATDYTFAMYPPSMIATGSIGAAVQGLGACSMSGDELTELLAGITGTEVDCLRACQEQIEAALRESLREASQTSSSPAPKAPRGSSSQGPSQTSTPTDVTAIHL
CDK6/cycD3, sequence (Q00534 whole entry, species assumed): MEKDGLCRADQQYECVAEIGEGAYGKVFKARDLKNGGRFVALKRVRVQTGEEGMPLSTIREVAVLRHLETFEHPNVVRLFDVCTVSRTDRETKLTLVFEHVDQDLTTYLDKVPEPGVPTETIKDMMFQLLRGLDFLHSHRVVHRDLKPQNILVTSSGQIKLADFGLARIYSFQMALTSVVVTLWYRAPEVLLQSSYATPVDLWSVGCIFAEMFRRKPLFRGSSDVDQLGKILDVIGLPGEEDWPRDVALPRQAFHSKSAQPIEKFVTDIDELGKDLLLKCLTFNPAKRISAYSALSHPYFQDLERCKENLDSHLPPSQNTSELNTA
CDK6/cycD3, sequence (P30281 whole entry partner, species assumed): as the sequence (P30281 whole entry partner, species assumed, canonical isoform) above
HDAC-6, sequence (Q9UBN7 whole entry): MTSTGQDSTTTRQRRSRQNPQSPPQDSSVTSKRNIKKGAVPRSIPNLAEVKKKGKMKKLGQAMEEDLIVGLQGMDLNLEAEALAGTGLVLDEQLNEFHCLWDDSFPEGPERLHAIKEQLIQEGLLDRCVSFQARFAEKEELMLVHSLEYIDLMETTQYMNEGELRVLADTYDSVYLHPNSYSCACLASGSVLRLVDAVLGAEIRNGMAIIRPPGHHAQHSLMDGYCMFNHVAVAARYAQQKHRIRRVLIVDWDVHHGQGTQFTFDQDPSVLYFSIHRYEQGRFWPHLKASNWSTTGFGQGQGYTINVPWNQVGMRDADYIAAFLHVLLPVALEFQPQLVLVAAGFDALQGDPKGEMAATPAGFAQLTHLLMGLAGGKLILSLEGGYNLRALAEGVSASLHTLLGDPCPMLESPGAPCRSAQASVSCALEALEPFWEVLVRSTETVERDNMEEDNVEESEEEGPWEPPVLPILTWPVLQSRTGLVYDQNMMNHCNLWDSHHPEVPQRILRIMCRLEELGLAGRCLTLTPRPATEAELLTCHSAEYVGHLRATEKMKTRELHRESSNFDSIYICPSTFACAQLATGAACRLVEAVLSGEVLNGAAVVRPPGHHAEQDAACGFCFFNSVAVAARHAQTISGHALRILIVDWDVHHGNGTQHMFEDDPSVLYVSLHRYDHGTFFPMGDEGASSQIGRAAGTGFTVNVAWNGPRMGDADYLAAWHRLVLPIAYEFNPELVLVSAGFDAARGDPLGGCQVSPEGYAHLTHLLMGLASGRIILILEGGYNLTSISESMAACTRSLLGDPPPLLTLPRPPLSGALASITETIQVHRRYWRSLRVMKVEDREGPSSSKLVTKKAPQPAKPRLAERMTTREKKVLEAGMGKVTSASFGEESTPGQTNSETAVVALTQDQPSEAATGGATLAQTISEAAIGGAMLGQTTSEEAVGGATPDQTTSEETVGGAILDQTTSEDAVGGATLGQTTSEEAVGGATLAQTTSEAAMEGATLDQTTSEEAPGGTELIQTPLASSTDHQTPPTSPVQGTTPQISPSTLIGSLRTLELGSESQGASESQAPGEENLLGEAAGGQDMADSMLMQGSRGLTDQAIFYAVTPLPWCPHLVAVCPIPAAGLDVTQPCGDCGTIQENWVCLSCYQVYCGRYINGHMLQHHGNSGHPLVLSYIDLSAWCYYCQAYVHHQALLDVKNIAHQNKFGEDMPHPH

IC50 (CDK4/CycD3)	IC50 (CDK6/cycD3)	IC50 (CDK2/CycA2)	IC50 (HDAC-1)	IC50 (HDAC-6; [1])	IC50 (HDAC-6)	SMILES
< 0.01 µM	0.01 to 0.1 µM	0.01 to 0.1 µM	0.1 to 0.5 µM	0.01 to 0.1 µM		Cc1nc2c(F)cc(-c3nc(Nc4ccc(CN5CCN(CCCCCCC(=O)NO)CC5)cn4)ncc3F)cc2n1C(C)C [Compound 1, 7-(4-((6-((5-fluoro-4-(4-fluoro-1-isopropyl-2-methyl-1H-benzo[d]imidazol-6-yl)pyrimidin-2-yl)amino)pyridin-3-yl)methyl)piperazin-1-yl)-N-hydroxyheptanamide]
< 0.01 µM	0.01 to 0.1 µM	0.1 to 0.5 µM	< 0.01 µM	0.01 to 0.1 µM		Cc1nc2c(F)cc(-c3nc(Nc4ccc(N(C)CCN(C)c5ncc(C(=O)NO)cn5)cn4)ncc3F)cc2n1C(C)C [Compound 2, 2-((2-((6-((5-fluoro-4-(4-fluoro-1-isopropyl-2-methyl-1H-benzo[d]imidazol-6-yl)pyrimidin-2-yl)amino)pyridin-3-yl)(methyl)amino)ethyl)(methyl)amino)-N-hydroxypyrimidine-5-carboxamide]
< 0.01 µM	0.01 to 0.1 µM	0.01 to 0.1 µM	0.01 to 0.1 µM	0.01 to 0.1 µM		Cc1nc2c(F)cc(-c3nc(Nc4ccc(N(C)CCCCCCC(=O)NO)cn4)ncc3F)cc2n1C(C)C [Compound 3, 7-((6-((5-fluoro-4-(4-fluoro-1-isopropyl-2-methyl-1H-benzo[d]imidazol-6-yl)pyrimidin-2-yl)amino)pyridin-3-yl)(methyl)amino)-N-hydroxyheptanamide]
< 0.01 µM	0.1 to 0.5 µM	0.1 to 0.5 µM	0.1 to 0.5 µM		< 0.01 µM	Cc1nc2c(F)cc(-c3nc(Nc4ccc(C(=O)NO)cn4)ncc3F)cc2n1C(C)C [Compound 4, 6-((5-fluoro-4-(4-fluoro-1-isopropyl-2-methyl-1H-benzo[d]imidazol-6-yl)pyrimidin-2-yl)amino)-N-hydroxynicotinamide]
< 0.01 µM	0.1 to 0.5 µM	0.01 to 0.1 µM	≥ 1 µM	0.01 to 0.1 µM		Cc1nc2c(F)cc(-c3nc(Nc4ccc(/C=C/C(=O)NO)cn4)ncc3F)cc2n1C(C)C [Compound 5, (E)-3-(6-((5-fluoro-4-(4-fluoro-1-isopropyl-2-methyl-1H-benzo[d]imidazol-6-yl)pyrimidin-2-yl)amino)pyridin-3-yl)-N-hydroxyacrylamide]
< 0.01 µM	0.01 to 0.1 µM	< 0.01 µM	0.1 to 0.5 µM	0.01 to 0.1 µM		Cc1nc2c(F)cc(-c3nc(Nc4ccc(N(C)Cc5ccc(C(=O)NO)cc5)cn4)ncc3F)cc2n1C(C)C [Compound 6, 4-(((6-((5-fluoro-4-(4-fluoro-1-isopropyl-2-methyl-1H-benzo[d]imidazol-6-yl)pyrimidin-2-yl)amino)pyridin-3-yl)(methyl)amino)methyl)-N-hydroxybenzamide]
0.01 to 0.1 µM	0.5 to 1 µM	0.1 to 0.5 µM	0.1 to 0.5 µM	0.01 to 0.1 µM		Cc1nc2c(F)cc(-c3nc(Nc4ccc(N(C)Cc5ccc(/C=C/C(=O)NO)cc5)cn4)ncc3F)cc2n1C(C)C [Compound 7, (E)-3-(4-(((6-((5-fluoro-4-(4-fluoro-1-isopropyl-2-methyl-1H-benzo[d]imidazol-6-yl)pyrimidin-2-yl)amino)pyridin-3-yl)(methyl)amino)methyl)phenyl)-N-hydroxyacrylamide]
< 0.01 µM	0.01 to 0.1 µM	0.01 to 0.1 µM	0.01 to 0.1 µM		< 0.01 µM	Cc1nc2c(F)cc(-c3nc(Nc4ccc(N5CCN(Cc6ccc(C(=O)NO)cc6)CC5)cn4)ncc3F)cc2n1C(C)C [Compound 8, 4-((4-(6-((5-fluoro-4-(4-fluoro-1-isopropyl-2-methyl-1H-benzo[d]imidazol-6-yl)pyrimidin-2-yl)amino)pyridin-3-yl)piperazin-1-yl)methyl)-N-hydroxybenzamide]
< 0.01 µM	0.01 to 0.1 µM	0.01 to 0.1 µM	≥ 1 µM		< 0.01 µM	Cc1nc2c(F)cc(-c3nc(Nc4ccc(N5CCN(CCCCCCC(=O)NO)CC5)cn4)ncc3F)cc2n1C(C)C [Compound 9, 7-(4-(6-((5-fluoro-4-(4-fluoro-1-isopropyl-2-methyl-1H-benzo[d]imidazol-6-yl)pyrimidin-2-yl)amino)pyridin-3-yl)piperazin-1-yl)-N-hydroxyheptanamide]
< 0.01 µM	< 0.01 µM	0.01 to 0.1 µM	0.1 to 0.5 µM		< 0.01 µM	Cc1nc2c(F)cc(-c3nc(Nc4ccc(N5CCN(C(=O)CCCCCCC(=O)NO)CC5)cn4)ncc3F)cc2n1C(C)C [Compound 10, 8-(4-(6-((5-fluoro-4-(4-fluoro-1-isopropyl-2-methyl-1H-benzo[d]imidazol-6-yl)pyrimidin-2-yl)amino)pyridin-3-yl)piperazin-1-yl)-N-hydroxy-8-oxooctanamide]
< 0.01 µM	0.01 to 0.1 µM	< 0.01 µM	≥ 1 µM	≥ 1 µM		Cc1nc2c(F)cc(-c3nc(Nc4ccc(C(=O)NO)nc4)ncc3F)cc2n1C(C)C [Compound 11, 5-((5-fluoro-4-(4-fluoro-1-isopropyl-2-methyl-1H-benzo[d]imidazol-6-yl)pyrimidin-2-yl)amino)-N-hydroxypicolinamide]
0.01 to 0.1 µM	≥ 1 µM	0.01 to 0.1 µM	0.1 to 0.5 µM	0.01 to 0.1 µM		Cc1nc2c(F)cc(-c3nc(Nc4cc(C(=O)NO)ccn4)ncc3F)cc2n1C(C)C [Compound 12, 2-((5-fluoro-4-(4-fluoro-1-isopropyl-2-methyl-1H-benzo[d]imidazol-6-yl)pyrimidin-2-yl)amino)-N-hydroxyisonicotinamide]
< 0.01 µM	< 0.01 µM	0.01 to 0.1 µM	≥ 1 µM	0.01 to 0.1 µM		Cc1nc2c(F)cc(-c3nc(Nc4ccc(N5CCN(CCCCC(=O)NO)CC5)cn4)ncc3F)cc2n1C(C)C [Compound 13, 5-(4-(6-((5-fluoro-4-(4-fluoro-1-isopropyl-2-methyl-1H-benzo[d]imidazol-6-yl)pyrimidin-2-yl)amino)pyridin-3-yl)piperazin-1-yl)-N-hydroxypentanamide]
< 0.01 µM	0.01 to 0.1 µM	0.01 to 0.1 µM	≥ 1 µM	0.5 to 1 µM		Cc1nc2c(F)cc(-c3nc(Nc4ccc(N5CCN(CCC(=O)NO)CC5)cn4)ncc3F)cc2n1C(C)C [Compound 14, 3-(4-(6-((5-fluoro-4-(4-fluoro-1-isopropyl-2-methyl-1H-benzo[d]imidazol-6-yl)pyrimidin-2-yl)amino)pyridin-3-yl)piperazin-1-yl)-N-hydroxypropanamide]
< 0.01 µM	0.01 to 0.1 µM	0.01 to 0.1 µM	≥ 1 µM	0.1 to 0.5 µM		Cc1nc2c(F)cc(-c3nc(Nc4ccc(N5CCC(C(=O)NO)CC5)cn4)ncc3F)cc2n1C(C)C [Compound 15, 1-(6-((5-fluoro-4-(4-fluoro-1-isopropyl-2-methyl-1H-benzo[d]imidazol-6-yl)pyrimidin-2-yl)amino)pyridin-3-yl)-N-hydroxypiperidine-4-carboxamide]
< 0.01 µM	0.01 to 0.1 µM	< 0.01 µM	≥ 1 µM	0.1 to 0.5 µM		Cc1nc2c(F)cc(-c3nc(Nc4ccc(-c5ccc(C(=O)NO)cn5)cn4)ncc3F)cc2n1C(C)C [Compound 16, 6′-((5-fluoro-4-(4-fluoro-1-isopropyl-2-methyl-1H-benzo[d]imidazol-6-yl)pyrimidin-2-yl)amino)-N-hydroxy-[2,3′-bipyridine]-5-carboxamide]
< 0.01 µM						Cc1nc2c(F)cc(-c3nc(Nc4ccc(C#CC(=O)NO)cn4)ncc3F)cc2n1C(C)C [Compound 17, 3-(6-((5-fluoro-4-(4-fluoro-1-isopropyl-2-methyl-1H-benzo[d]imidazol-6-yl)pyrimidin-2-yl)amino)pyridin-3-yl)-N-hydroxypropiolamide]
